Measurements from patent publication US20240148821A1, “PHARMACEUTICAL USE OF CYCLIC PEPTIDE COMPOUND” (CHUGAI SEIYAKU KABUSHIKI KAISHA, priority 2021, published 2024).
pIC50: −log10 of the molar value. Numbered stars: 1 amine (or outer) side, 2 acyl side, 3 side chain; on linkers, the order of the positions; unused ones are H or OH. Bridge positions count the residues as written; N and C are the ends. Square brackets hold non-standard residues; d marks the D form. Peptide text beside a SMILES is read from it. * marks the point of attachment. hPhe(3-Cl-4-CF3) = N[C@@H](CCc1ccc(C(F)(F)F)c(Cl)c1)C(=O)O; hPhe(3-F,4-CF3) = N[C@@H](CCc1ccc(C(F)(F)F)c(F)c1)C(=O)O; NMedβ3hAla = C[C@H](CC(=O)[*:2])N(C)[*:1]; NMeGly(cPent) = CN[C@H](C(=O)O)C1CCCC1; Phe(3-I) = N[C@@H](Cc1cccc(I)c1)C(=O)O; mXylylene = c1cc(C[*:1])cc(C[*:2])c1; NMeGly(cBu) = CN[C@H](C(=O)O)C1CCC1; NMeY = CN[C@@H](Cc1ccc(O)cc1)C(=O)O; NMeCha = CN[C@@H](CC1CCCCC1)C(=O)O; cisHyp = O=C(O)[C@@H]1C[C@H](O)CN1; Hyp = O=C(O)[C@@H]1C[C@@H](O)CN1; NMeCba = CN[C@@H](CC1CCC1)C(=O)O; NMeChg = CN[C@H](C(=O)O)C1CCCCC1; NMeE = CN[C@@H](CCC(=O)O)C(=O)O; NMeD = CN[C@@H](CC(=O)O)C(=O)O; NMeL = CN[C@@H](CC(C)C)C(=O)O; NPhGly = O=C(O)CNc1ccccc1; Morpholide = C1CN(*)CCO1; NMeA = CN[C@@H](C)C(=O)O; NMeAib = CNC(C)(C)C(=O)O; Nle = CCCC[C@H](N)C(=O)O; Piperidide = C1CCN(*)CC1; Ac5c = NC1(C(=O)O)CCCC1; Aze = O=C(O)[C@@H]1CCN1; Ethyl(2,2-F2) = FC(F)C*; Ethyl(2-OH) = OCC*; X14 = c1cc(C*)cs1; X9 = c1cncc(C*)c1; Sar = CNCC(=O)O

target: protein-protein interaction between Kras and SOS1 (biotin-tagged human Kras loaded with GDP, His-tagged human SOS1) (Homo sapiens (Human), UniProt P01116, G12D); assay: Protein-protein interaction inhibition between Kras and SOS1 (KrasG12D-SOS PPI) using AlphaScreen; assay type: biochemical; conditions: AlphaScreen; biotin-tagged human Kras loaded with GDP, His-tagged human SOS1; read-out: KRAS G12D-SOS PPI IC50;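 note: kras produced in E. coli, Ni-coupled donor beads and streptavidin acceptor beads, excitation 680 nm with emission detected at 520–620 nm via singlet oxygen transfer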

How did the pIC50 turn out when `CCCC[C@@H]1NC(=O)[C@H](Cc2cccc(I)c2)NC(=O)CN(C)C(=O)[C@H](Cc2ccc(OC)cc2)N(C)C(=O)[C@@H]2CCN2C(=O)[C@H](C)N(C)C(=O)[C@H]([C@@H](C)CC)NC(=O)[C@H](CC(C)C)N(C)C(=O)C[C@@H](C(=O)N2CCCCC2)N(C)C(=O)[C@H](CC(C)C)NC(=O)[C@H](CCC(=O)N(C)C)N(C)C1=O` [Compound 2110, 3-[(3S,6S,9S,13S,16S,19S,22S,25S,31S,34S)-22-butyl-25-[(3-iodophenyl)methyl]-9,16-diisobutyl-31-[(4-methoxyphenyl)methyl]-3,4,10,14,20,29,32-heptamethyl-6-[(1S)-1-methylpropyl]-2,5,8,11,15,18,21,24,27,30,33-undecaoxo-13-(piperidine-1-carbonyl)-1,4,7,10,14,17,20,23,26,29,32-undecazabicyclo[32.2.0]hexatriacontan-19-yl]-N,N-dimethyl-propanamide] ([NMeL]I[NMeA][Aze][NMeY](Me)[Sar][Phe(3-I)][Nle][NMeE](NMe2)L[NMeD]-Piperidide; lactam N-11) was run?
Its pIC50 is 8.01.

How did the pIC50 turn out when `CC[C@H](C)[C@@H]1NC(=O)[C@H](CC(C)C)N(C)C(=O)C[C@@H](C(=O)N2CCOCC2)N(C)C(=O)[C@H](C2CCCC2)N(C)C(=O)C2(CCCC2)NC(=O)[C@H](CCC(=O)N2CCCCC2)N(C)C(=O)[C@H](CCc2ccc(C(F)(F)F)c(Cl)c2)NC(=O)CN(C)C(=O)[C@H](CC2CCCCC2)N(C)C(=O)[C@@H]2CCN2C(=O)[C@H](C)N(C)C1=O` [Compound 2112] ([NMeL]I[NMeA][Aze][NMeCha][Sar][hPhe(3-Cl-4-CF3)][NMeE](Piperidide)[Ac5c][NMeGly(cPent)][NMeD]-Morpholide; lactam N-11) was run?
Its pIC50 is 7.96.

With `CC[C@H](C)[C@@H]1NC(=O)[C@H](CC(C)C)N(C)C(=O)C[C@@H](C(=O)N2CCCCC2)N(C)C(=O)[C@H](CC(C)C)NC(=O)C(C)(C)N(C)C(=O)[C@H](COc2ccccc2)NC(=O)[C@H](Cc2cccc(I)c2)NC(=O)CN(C)C(=O)[C@H](Cc2ccc(C)cc2)N(C)C(=O)[C@@H]2CCN2C(=O)CN(C)C1=O` [Compound 2114, (6S,9S,13S,16S,22S,25S,31S,34S)-25-[(3-iodophenyl)methyl]-9,16-diisobutyl-4,10,14,19,19,20,29,32-octamethyl-6-[(1S)-1-methylpropyl]-22-(phenoxymethyl)-13-(piperidine-1-carbonyl)-31-(p-tolylmethyl)-1,4,7,10,14,17,20,23,26,29,32-undecazabicyclo[32.2.0]hexatriacontane-2,5,8,11,15,18,21,24,27,30,33-undecone] as the compound, how does the pIC50 read?
Its pIC50 is 6.96.

With `CC[C@H](C)[C@@H]1NC(=O)[C@H](CC(C)C)N(C)C(=O)C[C@@H](C(=O)N2CCCCC2)N(C)C(=O)[C@H](C2CCCCC2)N(C)C(=O)C2(CCCC2)NC(=O)[C@@H]2C[C@H](OCCO)CN2C(=O)[C@H](CCc2ccc(C(F)(F)F)c(Cl)c2)NC(=O)CN(C)C(=O)[C@H](CC2CCCCC2)N(C)C(=O)CN(C)C(=O)CN(C)C1=O` [Compound 2117, (3S,9S,18S,21S,25S,28S,34S,36S)-3-[2-[3-chloro-4-(trifluoromethyl)phenyl]ethyl]-28-cyclohexyl-9-(cyclohexylmethyl)-36-(2-hydroxyethoxy)-21-isobutyl-7,10,13,16,22,26,29-heptamethyl-18-[(1S)-1-methylpropyl]-25-(piperidine-1-carbonyl)spiro[1,4,7,10,13,16,19,22,26,29,32-undecazabicyclo[32.3.0]heptatriacontane-31,1′-cyclopentane]-2,5,8,11,14,17,20,23,27,30,33-undecone] ([NMeL]I[Sar][Sar][NMeCha][Sar][hPhe(3-Cl-4-CF3)][cisHyp](Ethyl(2-OH))[Ac5c][NMeChg][NMeD]-Piperidide; lactam N-11) as the compound, how does the pIC50 read?
The pIC50 was 9.39.

With `CC[C@H](C)[C@@H]1NC(=O)[C@H](CC(C)C)N(C)C(=O)C[C@@H](C(=O)N2CCCCC2)N(C)C(=O)[C@H](C2CCCCC2)N(C)C(=O)C2(CCCC2)NC(=O)[C@@H]2C[C@@H](OCC(F)F)CN2C(=O)[C@H](CCc2ccc(C(F)(F)F)c(Cl)c2)NC(=O)CN(C)C(=O)[C@H](CC2CCCCC2)N(C)C(=O)CN(C)C(=O)CN(C)C1=O` [Compound 2119] ([NMeL]I[Sar][Sar][NMeCha][Sar][hPhe(3-Cl-4-CF3)][Hyp](Ethyl(2,2-F2))[Ac5c][NMeChg][NMeD]-Piperidide; lactam N-11) as the compound, how does the pIC50 read?
Its pIC50 is 9.41.

`CC[C@H](C)[C@@H]1NC(=O)[C@H](CC(C)C)N(C)C(=O)C[C@@H](C(=O)N2CCCCC2)N(C)C(=O)[C@H](C2CCCCC2)N(C)C(=O)C2(CCCC2)NC(=O)[C@@H]2C[C@H](OCc3cccnc3)CN2C(=O)[C@H](CCc2ccc(C(F)(F)F)c(Cl)c2)NC(=O)CN(C)C(=O)[C@H](CC2CCCCC2)N(C)C(=O)CN(C)C(=O)CN(C)C1=O` [Compound 2120] ([NMeL]I[Sar][Sar][NMeCha][Sar][hPhe(3-Cl-4-CF3)][cisHyp](X9)[Ac5c][NMeChg][NMeD]-Piperidide; lactam N-11) was tested. Which pIC50 did it give?
Its pIC50 is 9.00.

`CC[C@H](C)[C@@H]1NC(=O)[C@H](CC(C)C)N(C)C(=O)C[C@@H](C(=O)N2CCCCC2)N(C)C(=O)[C@H](C2CCCCC2)N(C)C(=O)C2(CCCC2)NC(=O)[C@@H]2C[C@@H](OCc3cccnc3)CN2C(=O)[C@H](CCc2ccc(C(F)(F)F)c(Cl)c2)NC(=O)CN(C)C(=O)[C@H](CC2CCCCC2)N(C)C(=O)CN(C)C(=O)CN(C)C1=O` [Compound 2121] ([NMeL]I[Sar][Sar][NMeCha][Sar][hPhe(3-Cl-4-CF3)][Hyp](X9)[Ac5c][NMeChg][NMeD]-Piperidide; lactam N-11) was tested. Which pIC50 did it give?
The pIC50 was 9.25.

With `CC[C@H](C)[C@@H]1NC(=O)[C@H](CC(C)C)N(C)C(=O)C[C@@H](C(=O)N2CCCCC2)N(C)C(=O)[C@H](C2CCCCC2)N(C)C(=O)C2(CCCC2)NC(=O)[C@@H]2C[C@@H](OCCO)CN2C(=O)[C@H](CCc2ccc(C(F)(F)F)c(Cl)c2)NC(=O)CN(C)C(=O)[C@H](CC2CCCCC2)N(C)C(=O)CN(C)C(=O)CN(C)C1=O` [Compound 2122, (3S,9S,18S,21S,25S,28S,34S,36R)-3-[2-[3-chloro-4-(trifluoromethyl)phenyl]ethyl]-28-cyclohexyl-9-(cyclohexylmethyl)-36-(2-hydroxyethoxy)-21-isobutyl-7,10,13,16,22,26,29-heptamethyl-18-[(1S)-1-methylpropyl]-25-(piperidine-1-carbonyl)spiro[1,4,7,10,13,16,19,22,26,29,32-undecazabicyclo[32.3.0]heptatriacontane-31,1′-cyclopentane]-2,5,8,11,14,17,20,23,27,30,33-undecone] ([NMeL]I[Sar][Sar][NMeCha][Sar][hPhe(3-Cl-4-CF3)][Hyp](Ethyl(2-OH))[Ac5c][NMeChg][NMeD]-Piperidide; lactam N-11) as the compound, how does the pIC50 read?
Its pIC50 is 9.34.

`CC[C@H](C)[C@@H]1NC(=O)[C@H](CC(C)C)N(C)C(=O)C[C@@H](C(=O)N2CCCCC2)N(C)C(=O)[C@H](C2CCCCC2)N(C)C(=O)C2(CCCC2)NC(=O)[C@@H]2C[C@H](OCC(F)F)CN2C(=O)[C@H](CCc2ccc(C(F)(F)F)c(Cl)c2)NC(=O)CN(C)C(=O)[C@H](CC2CCCCC2)N(C)C(=O)CN(C)C(=O)CN(C)C1=O` [Compound 2123] ([NMeL]I[Sar][Sar][NMeCha][Sar][hPhe(3-Cl-4-CF3)][cisHyp](Ethyl(2,2-F2))[Ac5c][NMeChg][NMeD]-Piperidide; lactam N-11) was tested. Which pIC50 did it give?
The pIC50 was 8.82.

`CC[C@H](C)[C@@H]1NC(=O)[C@H](CC(C)C)N(C)C(=O)C[C@@H](C(=O)N2CCCCC2)N(C)C(=O)[C@H](C2CCCCC2)N(C)C(=O)C2(CCCC2)NC(=O)[C@@H]2C[C@@H](OCc3ccsc3)CN2C(=O)[C@H](CCc2ccc(C(F)(F)F)c(Cl)c2)NC(=O)CN(C)C(=O)[C@H](CC2CCCCC2)N(C)C(=O)CN(C)C(=O)CN(C)C1=O` [Compound 2124] ([NMeL]I[Sar][Sar][NMeCha][Sar][hPhe(3-Cl-4-CF3)][Hyp](X14)[Ac5c][NMeChg][NMeD]-Piperidide; lactam N-11) was tested. Which pIC50 did it give?
Its pIC50 is 9.04.

`CC[C@H](C)[C@@H]1NC(=O)[C@H](CC(C)C)N(C)C(=O)C[C@@H](C(=O)N2CCCCC2)N(C)C(=O)[C@H](CC(C)C)N(C)C(=O)C2(CCCC2)NC(=O)[C@@H]2C[C@@H](OCc3cccc(C)c3)CN2C(=O)[C@H](CCc2ccc(C(F)(F)F)c(F)c2)NC(=O)CN(C)C(=O)[C@H](CC2CCCCC2)N(C)C(=O)CN(C)C(=O)CN(C)C1=O` [Compound 2125] ([NMeL]I[Sar][Sar][NMeCha][Sar][hPhe(3-F,4-CF3)][Hyp](mXylylene)[Ac5c][NMeL][NMeD]-Piperidide; lactam N-11) was tested. Which pIC50 did it give?
The pIC50 was 7.80.

`CC[C@H](C)[C@@H]1NC(=O)[C@H](CC(C)C)N(C)C(=O)C[C@@H](C(=O)N2CCCCC2)N(C)C(=O)[C@H](CC(C)C)N(C)C(=O)C2(CCCC2)NC(=O)[C@@H]2C[C@H](OCc3cccc(C)c3)CN2C(=O)[C@H](CCc2ccc(C(F)(F)F)c(F)c2)NC(=O)CN(C)C(=O)[C@H](CC2CCCCC2)N(C)C(=O)CN(C)C(=O)CN(C)C1=O` [Compound 2141] ([NMeL]I[Sar][Sar][NMeCha][Sar][hPhe(3-F,4-CF3)][cisHyp](mXylylene)[Ac5c][NMeL][NMeD]-Piperidide; lactam N-11) was tested. Which pIC50 did it give?
The pIC50 was 7.14.

How did the pIC50 turn out when `CC[C@H](C)[C@@H]1NC(=O)[C@H](C)N(C)C(=O)C[C@@H](C)N(C)C(=O)[C@H](C2CCC2)N(C)C(=O)C(C)(C)N(C)C(=O)CN(c2ccccc2)C(=O)[C@H](CCc2ccc(C(F)(F)F)c(Cl)c2)NC(=O)CN(C)C(=O)[C@H](C2CCC2)N(C)C(=O)[C@@H]2CCN2C(=O)[C@H](C)N(C)C1=O` [Compound 2148] (cyclo([Aze][NMeGly(cBu)][Sar][hPhe(3-Cl-4-CF3)][NPhGly][NMeAib][NMeGly(cBu)][NMedβ3hAla][NMeA]I[NMeA])) was run?
The pIC50 was 7.20.

`CC[C@H](C)[C@@H]1NC(=O)[C@H](C)N(C)C(=O)C[C@@H](C)N(C)C(=O)[C@H](CC2CCC2)N(C)C(=O)C(C)(C)N(C)C(=O)[C@@H]2CCCN2C(=O)[C@H](CCc2ccc(C(F)(F)F)c(Cl)c2)NC(=O)CN(C)C(=O)[C@H](CC2CCCCC2)N(C)C(=O)[C@@H]2CCN2C(=O)[C@H](C)N(C)C1=O` [Compound 2152] (cyclo([Aze][NMeCha][Sar][hPhe(3-Cl-4-CF3)]P[NMeAib][NMeCba][NMedβ3hAla][NMeA]I[NMeA])) was tested. Which pIC50 did it give?
Its pIC50 is 7.15.
